In patent publication US20240174744A1, “METHODS OF TREATMENT USING PROTEIN BINDERS TO IRHOM2 EPITOPES” (SCIRHOM GMBH, priority 2021, published 2024):

Tested on: PMA-induced release of IL-6R from THP-1 cells
Experiment: ELISA-based IL-6R release assay, PMA-stimulated THP-1 cells
Assay type: cell-based
Conditions: Homo sapiens, recombinant murine antibodies 1 μg/ml, Batimastat 10 μM, PMA 25 ng/ml, 1 hour
Method: In the following study, ELISA-based IL-6R release assays were performed to analyze the inhibitory effects of the antibodies of the present disclosure on PMA-induced release of endogenous IL-6R from human THP-1 monocytic cells.
In brief, on day 1, Nunc black MaxiSorp® 96-well plates (Thermo Fisher Scientific, USA) were coated for 7 hours with 100 μl per well of mouse anti-human IL-6R capture antibody (provided as part of the DuoSet ELISA kit) at 2 μg/ml TBS at room temperature. Capture antibody solution was removed and MaxiSorp® plates were blocked with 300 μl per well of TBS, 1% BSA at room temperature for 1.5 hours. […] Using an infinite M1000 (Tecan Group, Switzerland) microplate reader, the fluorescence of each well was collected at an excitation wavelength of 435 nm and an emission wavelength of 555 nm.

In the case of `CNC(=O)[C@H](Cc1ccccc1)NC(=O)[C@H](CC(C)C)[C@H](CSc1cccs1)C(=O)NO` [Batimastat], the inhibition at 10 µM is reported as 88.6%.
